# Results: US9688702B2, “Alpha-amino boronic acid derivatives, selective immunoproteasome inhibitors” (Ares Trading S.A, priority 2011, dated 2017)
# Counter-ions that a name gives are not always drawn.
# Key:
# [1] = biological target: LMP7 (purified human immuno proteasome) (Homo sapiens, UniProt P28062); assay: Determination of LMP7 activity (fluorescence intensity assay, Suc-LLVY-AMC); format: biochemical; conditions: for IC50: 40 μM Suc-LLVY-AMC, 37° C.
# Experimental: Measurement of LMP7 inhibition is performed in 384 well format based on fluorescence intensity assay.
# (§1) Purified human immuno proteasome (0.5 nM) and serial diluted compounds in DMSO (range of concentrations from 10 μM to 38 pM) or controls (0.5% DMSO) are incubated for 30 minutes at 37° C. in assay buffer containing 50 mM Tris pH 7.4 and 0.03% SDS. The reaction is initiated by the addition of the fluorogenic peptide substrate, Suc-LLVY-AMC (Bachem I-1395), at a concentration of 40 μM. After 90 minutes of incubation at 37° C., fluorescence intensity is measured at λex=350 nm and λem=450 nm with a fluorescence reader (BMG Pherastar reader or equivalent).
# as §1, with “proteasome (0.25” for “proteasome (0.5”
# [2] = biological target: Beta5 (purified human constitutive proteasome) (Homo sapiens, UniProt P28074); assay: Determination of Beta5 activity (fluorescence intensity assay, Suc-LLVY-AMC); format: biochemical; conditions: purified human constitutive proteasome 1.0 nM, 40 μM Suc-LLVY-AMC, 37° C.
# Experimental: Measurement of Beta5 inhibition is performed in 384 well format based on fluorescence intensity assay.
# as §1, with “human constitutive” for “human immuno”, “proteasome (1.0” for “proteasome (0.5”, “(Bachem 1-1395),” for “(Bachem I-1395),”
# [3] = purified human immuno proteasome 0.5 nM
# [4] = purified human immuno proteasome 0.25 nM (examples 79, 80, 83, 84, 85, 87, 88, 89, 90, 91, 93, 94, 96, 97, 101 and 110)
Selectivity LMP7 vs Beta5 [1],"IC50 [1, 3] [nM]",IC50 [2] [nM],"IC50 [1, 4] [nM]",Structure (SMILES)
+++ (+++: Selectivity > 30),50 to 500,> 5000,–,"COc1ccc(C(=O)CCC(=O)N[C@@H](Cc2cccc(C(F)(F)F)c2)B(O)O)cc1 [Example 26, {(1R)-1-{[4-(4-methoxyphenyl)-4-oxobutanoyl]amino}-2-[3-(trifluoromethyl)phenyl]ethyl}boronic acid]"
+++ (+++: Selectivity > 30),50 to 500,> 5000,–,"CCc1cccc(C[C@H](NC(=O)CCC(=O)c2ccccc2)B(O)O)c1 [Example 6, {(1R)-2-(3-ethylphenyl)-1-[(4-oxo-4-phenylbutanoyl)amino]ethyl}boronic acid]"
–,50 to 500,> 5000,–,"COc1ccc(C(=O)CCC(=O)N[C@@H](Cc2ccc(OC)c(C(F)(F)F)c2)B(O)O)cc1 [Example 46, (R)-(2-(4-methoxy-3-(trifluoromethyl)phenyl)-1-(4-(4-methoxyphenyl)-4-oxobutanamido)ethyl)boronic acid]"
+++ (+++: Selectivity > 30),–,< 50,< 50,"O=C(CCc1ccccc1)N[C@@H](Cc1coc2ccccc12)B(O)O [Example 94, (R)-(2-(benzofuran-3-yl)-1-(3-phenylpropanamido)ethyl)boronic acid]"
++ (++: 10 < Selectivity < 30),–,50 to 500,< 50,"O=C(Cc1cnc[nH]1)N[C@@H](Cc1coc2ccccc12)B(O)O [Example 83, (R)-(1-(2-(1H-imidazol-5-yl)acetamido)-2-(benzofuran-3-yl)ethyl) boronic acid hydrochloride]"
+ (+: Selectivity < 10),< 50,50 to 500,–,"O=C(CCn1nnc2ccccc21)N[C@@H](Cc1ccsc1)B(O)O [Example 35, [(1R)-1-{[3-(1H-1,2,3-benzotriazol-1-yl)propanoyl]amino}-2-(3-thienyl)ethyl]boronic acid]"
+ (+: Selectivity < 10),> 5000,> 5000,–,"COc1ccc2occ(C[C@H](NC(C)=O)B(O)O)c2c1 [Example 108, (R)-(1-acetamido-2-(5-methoxybenzofuran-3-yl)ethyl)boronic acid]"
+++ (+++: Selectivity > 30),50 to 500,> 5000,–,"COc1ccc(C(=O)CCC(=O)N[C@@H](Cc2cc(F)cc(OC)c2)B(O)O)cc1 [Example 47, (R)-(2-(3-fluoro-5-methoxyphenyl)-1-(4-(4-methoxyphenyl)-4-oxobutanamido)ethyl)boronic acid]"
++ (++: 10 < Selectivity < 30),< 50,< 50,–,"O=C(CCn1cc(-c2ccccc2)nn1)N[C@@H](Cc1ccc2c(c1)OCO2)B(O)O [Example 107, (R)-(2-(benzo[d][1,3]dioxol-5-yl)-1-(3-(4-phenyl-1H-1,2,3-triazol-1-yl)propanamido)ethyl)boronic acid]"
++ (++: 10 < Selectivity < 30),50 to 500,500 to 5000,–,"O=C(CCc1noc(-c2ccccc2)n1)N[C@@H](Cc1ccsc1)B(O)O [Example 37, [(1R)-1-{[3-(5-phenyl-1,2,4-oxadiazol-3-yl)propanoyl]amino}-2-(3-thienyl)ethyl]boronic acid]"
+++ (+++: Selectivity > 30),< 50,500 to 5000,–,"O=C(CCc1cn(-c2cccnc2)nn1)N[C@@H](Cc1ccc2ccccc2c1)B(O)O [Example 99, (R)-(2-(naphthalen-2-yl)-1-(3-(1-(pyridin-3-yl)-1H-1,2,3-triazol-4-yl)propanamido)ethyl)boronic acid]"
+++ (+++: Selectivity > 30),< 50,500 to 5000,–,"CC(=O)N[C@@H](Cc1coc2ccccc12)B(O)O [Example 78, (R)-(1-acetamido-2-(benzofuran-3-yl)ethyl)boronic acid]"
++ (++: 10 < Selectivity < 30),50 to 500,500 to 5000,–,"O=C(CCC(=O)c1cccc(-c2ccccc2)n1)N[C@@H](Cc1ccsc1)B(O)O [Example 23, [(1R)-1-{[4-oxo-4-(6-phenylpyridin-2-yl)butanoyl]amino}-2-(3-thienyl)ethyl]boronic acid]"
–,500 to 5000,> 5000,–,"CCc1cccc(C[C@H](NC(=O)[C@@H](CC(=O)c2ccccc2)c2ccc(Cl)cc2)B(O)O)c1 (single isomer, unassigned) [Example 16]"
–,500 to 5000,> 5000,–,"O=C(N[C@@H](Cc1ccsc1)B(O)O)[C@H]1CCCC[C@@H]1C(=O)c1ccccc1 (racemic) [Example 2, [(1R)-1-({[(1RS,2RS)-2-benzoylcyclohexyl]carbonyl}amino)-2-(3-thienyl)ethyl]boronic acid]"
++ (++: 10 < Selectivity < 30),< 50,50 to 500,–,"COc1cc(F)cc(C[C@H](NC(=O)CCn2cnc3ccccc32)B(O)O)c1 [Example 57, (R)-(1-(3-(1H-benzo[d]imidazol-1-yl)propanamido)-2-(3-fluoro-5-methoxyphenyl)ethyl)boronic acid]"
+++ (+++: Selectivity > 30),< 50,50 to 500,–,"CCc1cccc(C[C@H](NC(=O)CCn2cc(-c3ccccc3OC)nn2)B(O)O)c1 [Example 73, (R)-(2-(3-ethylphenyl)-1-(3-(4-(2-methoxyphenyl)-1H-1,2,3-triazol-1-yl)propanamido)ethyl)boronic acid]"
–,500 to 5000,> 5000,–,"CC(CC(=O)c1ccccc1)C(=O)N[C@@H](Cc1ccsc1)B(O)O (mixture of isomers) [Example 10, [(1R)-1-[(2-(RS)-methyl-4-oxo-4-phenylbutanoyl)amino]-2-(3-thienyl)ethyl]boronic acid]"
+++ (+++: Selectivity > 30),< 50,500 to 5000,–,"O=C(CCc1cn(-c2ccccc2)nn1)N[C@@H](Cc1ccsc1)B(O)O [Example 41, [(1R)-1-{[3-(1-phenyl-1H-1,2,3-triazol-4-yl)propanoyl]amino}-2-(3-thienyl)ethyl]boronic acid]"
++ (++: 10 < Selectivity < 30),< 50,< 50,–,"Cn1ncc2cc(C[C@H](NC(=O)CCn3cc(-c4ccccc4)nn3)B(O)O)ccc21 [Example 103, (R)-(2-(1-methyl-1H-indazol-5-yl)-1-(3-(4-phenyl-1H-1,2,3-triazol-1-yl)propanamido)ethyl)boronic acid]"
++ (++: 10 < Selectivity < 30),–,< 50,< 50,"COc1cccc(CCC(=O)N[C@@H](Cc2coc3ccccc23)B(O)O)c1 [Example 84, (R)-(2-(benzofuran-3-yl)-1-(3-(3-methoxyphenyl)propanamido)ethyl) boronic acid]"
++ (++: 10 < Selectivity < 30),< 50,50 to 500,–,"COc1ccc(-n2cc(CCC(=O)N[C@@H](Cc3ccc4ccccc4c3)B(O)O)nn2)cc1 [Example 100, (R)-(1-(3-(1-(4-methoxyphenyl)-1H-1,2,3-triazol-4-yl)propanamido)-2-(naphthalen-2-yl)ethyl)boronic acid]"
